{"source": "patent US6500813B1", "about": "“Ophthalmic composition containing active vitamin D” (priority 1995, dated 2002)", "key": {"[1]": {"test_system": "laser-irradiated cornea (corneal epithelial cells)", "test": "Test Example 1: excimer laser (PTK) corneal incision in rabbits, slit lamp and light microscope observation", "assay_type": "in vivo, Japan white rabbits", "description": "In this test, 6 Japan white rabbits each weighing 2 kg were used. After anesthetizing each animal by intramuscularly injecting an analgesic-anesthetic at the femoral regions thereof and by simultaneously dropping local anesthetic in the eyes, a laser beam was focused on the corneal center of the right eye using an excimer laser oscillator (available from Summit Technology Co. U.S.). The laser beam irradiation was carried out according to the surface-incision mode (PTK), i.e., at an energy density of 165 mj/cm^2, a rate of incision to a depth of 0.25 μm/pulse, an incised surface diameter of 4.5 mm and a pulse number of 300.\nAfter the laser beam irradiation, an eye drop and an ointment containing an antibiotic agent were administered to the eye. Three (Group A) out of these six animals were treated by dropping, in the right eye, an active vitamin D-containing solution (1 α-monohydroxy vitamin D: 0.01 μg/drop or 0.5 μg/ml; an alpha calcidol solution) in a rate of one drop (0.02 ml)/dose/day, starting from 24 hours after the laser beam irradiation. On the other hand, the remaining three (Group B) out of these six animals constituted a control group and were treated in the same manner by dropping, in the right eye, an ophthalmic buffer solution BSS at a rate of one drop/dose/day.\nAfter 4, 7 and 12 days from the laser beam irradiation, the right eyes of animals in Group A and Group B (one animal each) were observed under a slit lamp microscope, followed by slaughtering one animal in each Group and then enucleation of the eyeballs. The cornea was removed from the sclerocornea of each eyeball, followed by fixing through immersion in a Carnoa's solution for 4 hours, dehydration in dry ethanol, paraffin-embedded to form a corneal slice with a thickness of 4 μm, removing paraffin by xylol, carrying out the hematoxylin-eosin staining and/or PAS staining and observation of the corneal slice under a light microscope."}, "laser-irradiated cornea": {"test_system": "laser-irradiated cornea", "test": "Test Example 3: corneal turbidity rating after excimer laser (PTK) irradiation in rabbits", "assay_type": "in vivo, Japan white rabbits", "conditions": "10^−7% solution, 20 μl/dose, 3 times/day over 14 days", "description": "In this test, 8 Japan white rabbits each weighing 2 kg were used. A laser beam was focused on the corneal center of the right eye of each animal using an excimer laser oscillator (available from Summit Technology Co. U.S.) under anesthesia. The laser beam irradiation was carried out according to the surface-incision mode (PTK), i.e., at an energy density of 165 mj/cm^2, a rate of incision to a depth of 0.25 μm/pulse, a diameter of the incised circular area of 4.5 mm and an irradiated pulse number of 300.\nThese 8 test animals which had been irradiated with the laser beam were, at random, divided into two groups each comprising 4 animals, one of which constituted a drug-administered group and the other of which constituted a control group. […]\nAfter 24 hours from the laser irradiation, the drug-administered group and the control-group were treated by dropping, in the right eye, a 10^−7% active vitamin D-containing solution [22-oxa-1β,25-dihydroxy vitamin D3: OCT (available from Chugai Pharmaceutical Co., Ltd.)] and the OCT solvent base, respectively, at 20 μl/dose and 3 times/day over 14 days. After 7 and 15 days from the irradiation, the extent of the turbidity of each cornea was evaluated on the basis of the findings for the 8 animals observed under a slit lamp microscope. […]"}, "[2]": {"test_system": "lens capsule, aqueous humor and intraocular lens", "test": "Test Example 2: lens removal by ultrasonic emulsification and aspiration with intraocular lens transplantation in rabbits, slit lamp observation of turbidity", "assay_type": "in vivo, Japan white house rabbits", "conditions": "for fibrin deposition in the anterior chamber: versus sesame oil control (animal C)", "from_the_text": "In this test, three Japan white house rabbits each weighing 2 kg were used. After anesthetizing each animal by intramuscularly injecting an analgesic-anesthetic at the femoral regions thereof and by simultaneously dropping a local anesthetic in the eyes, the sclerocornea of each animal was dissected over a length of 3.5 mm, followed by excising a circular piece of the arterior capsule at a diameter of about 5 mm from the lens capsule under perfusion of the ophthalmic buffer solution BSS, removal of the lens nuclei and the cortex by the ultrasonic emulsification and aspiration technique, swelling the lens capsule by injecting a viscoelastic substance, then widening the incised port of the sclerocornea to about 7 mm and transplantation, into the lens capsule, of a poly(methyl methacrylate) intraocular lens provided with an optical part having a diameter of 6 mm. After the removal of the viscoelastic substance under vacuum suction, the incised wound of the sclerocornea was sutured with three stitches using a 9-0 nylon suture to thus complete the operation. After the completion of the operation, an eye drop and an ointment containing an antibiotic agent were administered to the conjunctiva. The right eyes of these three animals were subjected to the ultrasonic emulsification and aspiration technique and the transplantation of an intraocular lens.\nOne (A) out of these three animals was treated with a calcitriol solution in a rate of 1 to 2 drops/dose/day. The calcitriol solution used was prepared by dissolving and diluting calcitriol (1α,25-dihydroxy vitamin D) in ethanol and then further diluting (1:100) the resulting dilute solution, to a calcitriol concentration of 0.5 μg/ml, with an ophthalmic oil base consisting of purified sesame oil. One (B) out of the three animals was treated by orally administering the calcitriol solution in a rate of 1 ml/dose/day using a dropping pipette. The remaining one (C) out of the three animals was treated by dropping ophthalmic purified sesame oil free of any calcitriol in the right eye in a rate of 1 to 2 drops/dose/day. After the mydriasis at 1, 4, 7, 14 and 28 days from the operation, the lens capsule, aqueous humor and intraocular lens for each animal were inspected for the turbidity through the observation under a slit lamp microscope."}, "[3]": {"conditions": "animal A, eye drop, after 7 days from the operation"}}, "data": [{"smiles": "C=C1/C(=C\\C=C2/CCC[C@]3(C)[C@@H]([C@H](C)CCCC(C)C)CC[C@@H]23)C[C@@H](O)C[C@@H]1O", "note": "[alpha calcidol, 1α-monohydroxy vitamin D]", "values": [{"measurement": "opacity of the laser-irradiated site under the slit lamp microscope", "setting": "[1]; Group A, right eye, eye drop 0.01 μg/drop (0.5 μg/ml), one drop/dose/day from 24 hours after irradiation, observed after 4, 7 and 12 days, versus BSS control (Group B)", "value": "quite slight opacity at the peripheral edge of the laser-irradiated site"}, {"measurement": "piling up growth of the corneal epithelial cells, sliced cornea under a light microscope", "setting": "[1]; Group A, right eye, eye drop 0.01 μg/drop, one drop/dose/day, control Group B ran up to 10 layers", "value": "not observed such tendency as piling up growth"}, {"measurement": "side effect (bleeding, fibrin-deposition, corneal haze/opacity, intraocular inflammation)", "setting": "[1]; Test Example 1, eye drop", "value": "not observed any side effect"}]}, {"smiles": "C=C1/C(=C\\C=C2/CCC[C@]3(C)[C@@H]([C@H](C)OCCC(C)(C)O)CC[C@@H]23)C[C@@H](O)C[C@@H]1O", "note": "[OCT, 22-oxa-1β,25-dihydroxy vitamin D3]", "values": [{"measurement": "degree of turbidity relative to that observed for the control group", "setting": "laser-irradiated cornea", "value": "about ½"}, {"measurement": "degree of corneal turbidity, rating 0 (no turbidity) to 4 (complete opacification), average of four animals", "setting": "laser-irradiated cornea; right eye, evaluated after 7 and 15 days, control group 3.5", "value": 2.0}]}, {"smiles": "C=C1/C(=C\\C=C2/CCC[C@]3(C)[C@@H]([C@H](C)CCCC(C)(C)O)CC[C@@H]23)C[C@@H](O)C[C@@H]1O", "note": "[calcitriol, 1α,25-dihydroxy vitamin D]", "values": [{"measurement": "side effect (bleeding, fibrin-deposition, corneal haze/opacity, intraocular inflammation)", "setting": "[2]; Test Example 2, eye drop or oral", "value": "not observed any side effect"}, {"measurement": "transparency, eye drop (animal A) compared with oral (animal B)", "setting": "[2]; after 28 days from the operation", "value": "better than that observed for the animal B"}, {"measurement": "posterior synechia", "setting": "[2]; animal A, eye drop", "value": "did not cause any posterior synechia"}, {"measurement": "fibrin deposition in the anterior chamber", "setting": "[2]; animal A, eye drop 0.5 μg/ml in sesame oil, 1 to 2 drops/dose/day", "value": "very low as compared with that observed for the animal C"}, {"measurement": "transparency of the anterior capsule", "setting": "[2]; [3]", "value": "maintained desired transparency"}, {"measurement": "wrinkling and opacity of the anterior capsule", "setting": "[2]; [3]", "value": "only slight wrinkling of the anterior capsule and opacity of the periphery thereof"}, {"measurement": "opacity and wrinkling of the anterior capsule", "setting": "[2]; animal A, eye drop, after 28 days from the operation", "value": "slight opacity and wrinkling of the anterior capsule"}, {"measurement": "posterior synechia", "setting": "[2]; animal B, oral", "value": "did not cause any posterior synechia"}, {"measurement": "fibrin deposition in the anterior chamber", "setting": "[2]; animal B, oral 1 ml/dose/day of 0.5 μg/ml solution", "value": "very low as compared with that observed for the animal C"}, {"measurement": "opacity and wrinkling of the anterior capsule", "setting": "[2]; animal B, oral, after 28 days from the operation", "value": "slight opacity and wrinkling of the anterior capsule"}]}]}
